Data: ChEMBL document CHEMBL6120958, “A Highly Atom-Efficient Prodrug Approach to Generate Synergy between H2S and Nonsteroidal Anti-inflammatory Drugs and Improve Safety” (J Med Chem, 2024)
The source made the active and inactive calls. The calls are words filed in the database; no cut-off is given here.

What was measured:
[1] = Stability of the compound in PBS at 500 uM measured for 3 months at pH 7.4 at -20 degC by HPLC analysis; assay type: physicochemical; details: buffer, pH 7.4, 2190 h
[2] = Stability of the compound in PBS at 500 uM measured within 144 hrs at pH 7.4 at 37 degC by HPLC analysis; assay type: physicochemical; details: buffer, pH 7.4, 144 h
[3] = molecular target: T1, Prostaglandin G/H synthase 2 (Homo sapiens, UniProt P35354); assay: Inhibition of human recombinant COX2 assessed as reduction in PGF2alpha production using arachidonic acid as substrate preincubated with enzyme for 10 mins followed by substrate addition and measured after 2 mins by ELISA
T1 sequence (P35354 whole entry): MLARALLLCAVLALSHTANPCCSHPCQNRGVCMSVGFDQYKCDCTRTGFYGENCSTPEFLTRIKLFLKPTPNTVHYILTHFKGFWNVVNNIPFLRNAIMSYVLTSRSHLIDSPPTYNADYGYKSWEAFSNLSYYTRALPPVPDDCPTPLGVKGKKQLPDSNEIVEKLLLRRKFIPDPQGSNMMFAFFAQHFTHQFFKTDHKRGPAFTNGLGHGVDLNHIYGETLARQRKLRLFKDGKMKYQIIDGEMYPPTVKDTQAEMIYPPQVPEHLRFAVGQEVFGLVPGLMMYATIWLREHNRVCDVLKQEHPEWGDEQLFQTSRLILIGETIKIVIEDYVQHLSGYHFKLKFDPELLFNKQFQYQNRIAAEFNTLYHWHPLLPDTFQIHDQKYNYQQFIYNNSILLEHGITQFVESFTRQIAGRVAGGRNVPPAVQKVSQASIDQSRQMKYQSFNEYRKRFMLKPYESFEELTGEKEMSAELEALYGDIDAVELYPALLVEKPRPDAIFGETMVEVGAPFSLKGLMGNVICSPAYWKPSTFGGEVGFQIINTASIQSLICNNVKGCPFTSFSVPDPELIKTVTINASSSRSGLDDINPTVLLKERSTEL

[4] = Stability of the compound in rat plasma assessed as half life by LC-MS/MS analysis; assay type: ADME, cell-free
[5] = molecular target: T2, Prostaglandin G/H synthase 1 (Ovis aries, UniProt P05979); assay: Inhibition of ovine COX1 assessed as reduction in PGF2alpha production using arachidonic acid as substrate preincubated with enzyme for 10 mins followed by substrate addition and measured after 2 mins by ELISA
T2 sequence (P05979 whole entry): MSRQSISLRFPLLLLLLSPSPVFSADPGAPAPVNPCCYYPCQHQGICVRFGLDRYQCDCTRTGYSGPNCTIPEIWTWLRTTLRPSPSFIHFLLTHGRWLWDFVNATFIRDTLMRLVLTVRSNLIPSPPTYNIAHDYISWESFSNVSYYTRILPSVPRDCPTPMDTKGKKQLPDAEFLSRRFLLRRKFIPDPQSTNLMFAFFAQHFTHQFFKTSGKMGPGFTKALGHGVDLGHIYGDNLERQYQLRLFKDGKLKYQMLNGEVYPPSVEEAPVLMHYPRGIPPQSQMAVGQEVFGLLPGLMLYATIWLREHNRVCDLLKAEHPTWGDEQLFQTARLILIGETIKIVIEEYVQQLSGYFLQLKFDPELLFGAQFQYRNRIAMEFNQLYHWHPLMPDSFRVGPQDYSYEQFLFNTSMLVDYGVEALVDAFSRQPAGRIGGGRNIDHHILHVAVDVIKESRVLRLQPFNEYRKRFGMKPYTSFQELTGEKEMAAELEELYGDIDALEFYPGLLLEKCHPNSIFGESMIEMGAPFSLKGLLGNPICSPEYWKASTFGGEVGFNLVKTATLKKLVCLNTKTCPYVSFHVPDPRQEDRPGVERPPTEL

Liver carboxylesterase [6] = molecular target: T3, Liver carboxylesterase (Sus scrofa, UniProt Q29550); assay: Prodrug release in PBS assessed as porcine liver esterase-mediated hydrolysis by measuring peak H2S concentration at 500 uM measured at pH 7.4 after 90 mins by methylene blue method; assay type: ADME; details: pig, isolated protein, pH 7.4, 1.5 h
T3 sequence (Q29550 whole entry): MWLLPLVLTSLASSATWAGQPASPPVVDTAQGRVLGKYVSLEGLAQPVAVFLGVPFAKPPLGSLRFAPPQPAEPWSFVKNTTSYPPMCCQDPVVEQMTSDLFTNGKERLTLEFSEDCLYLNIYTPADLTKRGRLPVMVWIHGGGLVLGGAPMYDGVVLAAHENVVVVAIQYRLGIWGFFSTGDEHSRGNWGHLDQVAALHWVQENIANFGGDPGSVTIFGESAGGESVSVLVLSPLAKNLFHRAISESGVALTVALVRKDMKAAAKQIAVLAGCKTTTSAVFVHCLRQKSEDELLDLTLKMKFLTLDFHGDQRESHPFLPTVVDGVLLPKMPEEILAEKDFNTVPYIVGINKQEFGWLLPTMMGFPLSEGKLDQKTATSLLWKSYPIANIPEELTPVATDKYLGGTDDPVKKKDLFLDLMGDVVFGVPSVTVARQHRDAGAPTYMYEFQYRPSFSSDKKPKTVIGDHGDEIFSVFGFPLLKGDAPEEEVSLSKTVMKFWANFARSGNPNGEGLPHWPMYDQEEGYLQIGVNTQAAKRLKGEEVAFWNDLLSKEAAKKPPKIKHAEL

Liver carboxylesterase [7] = molecular target: T3, Liver carboxylesterase; assay: Prodrug release in PBS assessed as porcine liver esterase-mediated hydrolysis by measuring half-life at 500 uM measured at pH 7.4 by HPLC analysis; assay type: ADME; details: pig, isolated protein, pH 7.4, 500 µM
[8] = Toxicity against collagen-induced arthritis Wistar rat model assessed as gastrointestinal tract damage by measuring ulcer area in stomach at 33.7 umol/kg, po administered for 28 days; assay type: organism-based; details: in vivo, 672 h, at 33.7 µmol/kg, time 28 day
[9] = Toxicity against C57BL/6J mouse assessed as ALT level in serum at 506 umol/kg, ip measured after 24 hrs; assay type: organism-based; details: in vivo, dose 506 µmol/kg
Rattus norvegicus [10] = assay: Antiinflammatory activity against collagen-induced arthritis Wistar rat model assessed as increase in IL-10 level in serum at 33.7 umol/kg, po administered for 28 days via gavage by ELISA; assay type: functional, organism-based; details: dose 33.7 µmol/kg, time 28.0 day
[11] = Toxicity against collagen-induced arthritis Wistar rat model assessed as creatinine level in serum at 33.7 umol/kg, po administered for 28 days; assay type: organism-based; details: in vivo, 672 h, dose 33.7 µmol/kg, time 28 day
[12] = Toxicity against collagen-induced arthritis Wistar rat model assessed as gastric ulcer area at 16.8 umol/kg, po administered for 28 days; assay type: organism-based; details: in vivo, 672 h, at 16.8 µmol/kg, time 28 day
[13] = Toxicity against collagen-induced arthritis Wistar rat model assessed as AST level in serum at 33.7 umol/kg, po administered for 28 days; assay type: organism-based; details: in vivo, 672 h, dose 33.7 µmol/kg, time 28 day
[14] = Toxicity against C57BL/6J mouse assessed as AST level in serum at 506 umol/kg, ip measured after 24 hrs; assay type: organism-based; details: in vivo, dose 506 µmol/kg
Rattus norvegicus [15] = assay: Antiinflammatory activity against collagen-induced arthritis Wistar rat model assessed as reduction in IL-1 beta level in serum at 33.7 umol/kg, po administered for 28 days via gavage by ELISA; assay type: functional, organism-based; details: dose 33.7 µmol/kg, time 28.0 day
Rattus norvegicus [16] = assay: Antiinflammatory activity against collagen-induced arthritis Wistar rat model assessed as reduction in toe swelling at 33.7 umol/kg, po administered for 28 days via gavage; assay type: functional, organism-based; details: dose 33.7 µmol/kg, time 28.0 day
[17] = Toxicity against collagen-induced arthritis Wistar rat model assessed as uric acid level in serum at 33.7 umol/kg, po administered for 28 days; assay type: organism-based; details: in vivo, 672 h, dose 33.7 µmol/kg, time 28 day
[18] = Cardiotoxicity against Sprague-Dawley rat assessed as LDH level in serum at 13.5 mg/kg, ip administered for 6 days (reference value: 831.8 +/-23.1 U/L); assay type: toxicity, organism-based; details: in vivo, 144 h, time 6 day
[19] = Oral bioavailability in Wistar rat at 10 mg/kg; assay type: ADME, organism-based; details: in vivo
[20] = Toxicity against collagen-induced arthritis Wistar rat model assessed as glutathione level in liver at 33.7 umol/kg, po administered for 28 days; assay type: organism-based; details: in vivo, 672 h, dose 33.7 µmol/kg, time 28 day
Liver carboxylesterase [21] = molecular target: T3, Liver carboxylesterase; assay: Prodrug release in PBS assessed as porcine liver esterase-mediated hydrolysis by measuring peak H2S concentration at 500 uM measured at pH 7.4 after 40 mins by methylene blue method; assay type: ADME; details: pig, isolated protein, pH 7.4, 40 min
Liver carboxylesterase [22] = molecular target: T3, Liver carboxylesterase; assay: Prodrug release in PBS assessed as porcine liver esterase-mediated hydrolysis by measuring peak H2S concentration at 500 uM measured at pH 7.4 after 80 mins by methylene blue method; assay type: ADME; details: pig, isolated protein, pH 7.4, 1.333 h
Rattus norvegicus [23] = assay: Prodrug release in Sprague-Dawley rat assessed as benzoic acid level in blood at 80 umol/kg, iv measured after 5 mins by LC-MS/MS analysis; assay type: ADME, organism-based; details: in vivo, dose 80 µmol/kg
Liver carboxylesterase [24] = molecular target: T3, Liver carboxylesterase; assay: Prodrug release in PBS assessed as porcine liver esterase-mediated hydrolysis by measuring H2S concentration at 500 uM measured at pH 7.4 after 5 hrs by methylene blue method; assay type: ADME; details: pig, isolated protein, pH 7.4, 5 h
[25] = Stability in Sprague-Dawley rat assessed as parent compound level in blood at 80 umol/kg, iv measured after 1 min by LC-MS/MS analysis; assay type: ADME, organism-based; details: whole blood, dose 80 µmol/kg, read-out: Stability
Mus musculus [26] = assay: Prodrug release in C57BL/6J mouse assessed as increase in H2S concentration in blood at 50 umol/kg, iv measured after 15 mins by gas chromatography; assay type: ADME, organism-based; details: in vivo, 0.25 h, dose 50 µmol/kg
Liver carboxylesterase [27] = molecular target: T3, Liver carboxylesterase; assay: Prodrug release in PBS assessed as porcine liver esterase-mediated hydrolysis at 500 uM measured at pH 7.4 in presence of PMSF by HPLC analysis; assay type: ADME; details: pig, isolated protein, pH 7.4, 500 µM
Rattus norvegicus [28] = assay: Prodrug release in Sprague-Dawley rat assessed as benzoic acid level in blood at 80 umol/kg, iv measured after 1 min by LC-MS/MS analysis; assay type: ADME, organism-based; details: in vivo, dose 80 µmol/kg
[29] = Stability in Sprague-Dawley rat assessed as parent compound level in blood at 80 umol/kg, iv measured after 5 mins by LC-MS/MS analysis; assay type: ADME, organism-based; details: whole blood, dose 80 µmol/kg, read-out: Stability
Mus musculus [30] = assay: Protection against ischemia/reperfusion injury in middle cerebral artery occlusion C57BL/6J mouse model assessed as decrease in infarct size in brain at 100 umol/kg, iv administered within initial 20 mins of ischemia period followed by reperfusion for 24 hrs after 1 hr and 20 mins of ischemia period and measured at 24 hrs post-reperfusion by TTC staining based analysis; assay type: functional, organism-based; details: dose 100.0 µmol/kg, time 2960.0 min
Mus musculus [31] = assay: Protection against ischemia/reperfusion injury in middle cerebral artery occlusion C57BL/6J mouse model assessed as decrease in malondialdehyde level in brain at 100 umol/kg, iv administered within initial 20 mins of ischemia period followed by reperfusion for 24 hrs after 1 hr and 20 mins of ischemia period and measured at 24 hrs post-reperfusion; assay type: functional, organism-based; details: dose 100.0 µmol/kg, time 2960.0 min

COc1ccc(CCC(=O)[S-])cc1.[Na+]
Stability [1]: Stable
Stability [2]: Stable

COc1ccc2cc([C@H](C)C(=O)O)ccc2c1 [NAPROXEN]
IC50 [3]: 10600 nM

O=C([S-])CCc1ccccc1.[Na+]
Stability [1]: Stable
Stability [2]: Stable

O=C([S-])Cc1ccc2ccccc2c1.[Na+]
Stability [1]: Stable
Stability [2]: Stable

CC(C(=O)[S-])c1ccc(-c2ccccc2)c(F)c1.[Na+] (configuration not stated)
Stability [1]: Stable
half-life [4]: 4.67 h
Stability [2]: Stable
IC50 [5]: 221 nM

COc1ccc(C(=O)[S-])cc1.[Na+]
Stability [1]: Stable
Stability [2]: Stable

COc1ccc2c(c1)c(CC(=O)[S-])c(C)n2C(=O)c1ccc(Cl)cc1.[Na+]
Stability [1]: Stable
half-life [4]: 21.3 h
Stability [2]: Stable
Drug metabolism (Liver carboxylesterase [6]): 29 µM
IC50 [5]: 7.6 nM
t1/2 (Liver carboxylesterase [7]): 4.45 h

Cc1ccc(C(=O)[S-])cc1.[Na+]
Stability [1]: Stable
Stability [2]: Stable

O=C(O)Cc1ccccc1Nc1c(Cl)cccc1Cl [DICLOFENAC]
Activity [8]: 0.42%
Activity [9]: 76.9 U/L
Activity (Rattus norvegicus [10]): Active
Activity [11]: 342.6 µmol/L
Activity [12]: 0.09%
Activity [13]: 75.3 U/L
Activity [14]: 128.6 U/L
Activity (Rattus norvegicus [15]): Active
Activity (Rattus norvegicus [16]): Active
Activity [17]: 165.6 µmol/L
Activity [18]: 2249 U/L
bioavailability [19]: 75%
Activity [20]: 0.8 µg/mg

Cc1ccc(CC(=O)[S-])cc1.[Na+]
Stability [1]: Stable
Stability [2]: Stable

O=C([S-])c1ccc2ccccc2c1.[Na+]
Stability [1]: Stable
Stability [2]: Stable

O=C([S-])CCc1ccc(Cl)cc1.[Na+]
Stability [1]: Stable
Drug metabolism (Liver carboxylesterase [21]): 129 µM
Stability [2]: Stable
t1/2 (Liver carboxylesterase [7]): 0.0967 h

O=C([S-])Cc1ccccc1.[Na+]
Stability [1]: Stable
Stability [2]: Stable

O=C([S-])c1ccccc1.[Na+]
Drug metabolism (Liver carboxylesterase [22]): 70 µM
Stability [1]: Stable
Drug metabolism (Rattus norvegicus [23]): 78.3 µM
half-life [4]: 2.17 h
Stability [2]: Stable
Drug metabolism (Liver carboxylesterase [24]): metabolite_detected
concentration at 1 min [25]: 439 µM
t1/2 (Liver carboxylesterase [7]): 2.51 h
Drug metabolism (Mus musculus [26]): metabolite_detected
Drug metabolism (Liver carboxylesterase [27]): metabolite_notdetected
Drug metabolism (Rattus norvegicus [28]): 46.4 µM
concentration at 5 min [29]: 113 µM

OC(=S)c1ccccc1
Activity (Mus musculus [30]): Active; Comparable Efficacy To Na2S Observed
Activity (Mus musculus [31]): Active

COc1ccc2cc([C@H](C)C(=O)[S-])ccc2c1.[Na+]
Stability [1]: Stable
half-life [4]: 6.73 h
Stability [2]: Stable
IC50 [5]: 1300 nM
